This is an account of results in US11091591B2, “Carbohydrate ligands that bind to antibodies against glycoepitopes of glycosphingolipids” (UNIVERSITÄT BASEL, priority 2015, dated 2021).

Usually IC50 stands for the concentration at which inhibition is half-maximal. Read a low IC50 as inhibition by little substance.

Assay [1] relates to mouse monoclonal anti-HNK-1 (anti-MAG) IgM antibody. Kind of assay: Competitive binding anti-MAG ELISA, MAG-coated wells. On the procedure:
(§1) The synthesized carbohydrate polymer 86 (HNK-1 epitope mimetic 58) was tested in the anti-MAG ELISA (kit from Bühlmann Laboratories, Schönenbuch, Switzerland). The assay protocol was performed according to the one described above for the GanglioCombi(-Light) ELISA. To determine the in vitro IC50 of polymer 86, the assay was performed with co-incubation of polymer (25 μl/well) and a mouse monoclonal anti-HNK-1 (anti-MAG) IgM antibody (25 μl/well) at a final dilution of 1:1000. To determine the in vivo efficacy of polymer 86, the assay was performed by incubation of mouse plasma diluted 1:100 (50 μl/well). Both, the mouse monoclonal anti-HNK-1 (anti-MAG) IgM and anti-HNK-1 (anti-MAG) IgM in plasma of immunized BALB/c mice (pre- and post-treatment) were detected with goat anti-mouse IgM HRP conjugate (Sigma Aldrich, A8786) diluted 1:10′000.
(In general: An ELISA detects its analyte on a solid surface through an enzyme-linked reagent.)

Assay [2] has as its system anti-HNK-1 (anti-MAG) IgM antibodies. Kind of assay: Immunological mouse model for anti-MAG neuropathy. The format is in vivo. The conditions noted are these: immunized BALB/c mice, 10 mg/kg intravenous, up to 168 h (seven days) after administration. Here is the method:
as §1
Six gender matched BALB/c wild type mice at the age of 6 weeks were injected subcutaneously at multiple sites on the lower back with a total of 100 μg of the glycosphingolipids SGPG and SGLPG purified from bovine cauda equina (both glycolipids contain the HNK-1 carbohydrate epitope). The isolation of glycolipids was performed according to a protocol described by Burger et al. (Journal of Immunological Methods 1991, 140, 31-36). […] Mouse plasma samples were analyzed by the above described anti-MAG ELISA.

For assay [3], the target named is anti-GD1b IgG antibodies of neuropathy patient serum. Kind of assay: Competitive binding ELISA (GanglioCombi), GD1b-coated wells, patient serum IgG. The conditions noted are these: serum P22 (IgG), dilution 1:50; table prints GD1a (IgG). Further details: species or system human. Here is the method:
(§2) The synthesized carbohydrate polymers 6 (GM1a epitope), 26 (GD1b epitope), and 34 (GT1a epitope) were tested in the GanglioCombi(-Light) ELISA and/or, in case of compound 6, the anti-GM1 ELISA (all kits from Bühlmann Laboratories, Schönenbuch, Switzerland). The 96 well microtiter plates coated with purified gangliosides from bovine cauda equina were washed two times with washing buffer (300 μl/well) before adding the carbohydrate polymers in eight different concentrations, 25 μl/well. The patient sera containing anti-ganglioside IgG or IgM antibodies were added in the appropriate dilutions, 25 μl/well (2× concentrated), to obtain a total of 50 μl volume per well. […] Finally, a stop solution (0.25 M sulfuric acid) was added (100 μl/well) and the degree of colorimetric reaction was determined by absorption measurement at 450 nm with a microplate reader (Spectramax 190, Molecular Devices, California, USA).
(§3) As indicated, the synthesized carbohydrate polymers 6 (GM1a epitope), 26 (GD1b epitope), and 34 (GT1a epitope) were tested in the GanglioCombi(-Light) ELISA and/or, in case of compound 6, the anti-GM1 ELISA (all kits from Bühlmann Laboratories, Schönenbuch, Switzerland). […] After a washing step ganglioside-bound antibodies (IgM/IgG) were detected with horseradish peroxidase labeled anti-human IgM or anti-human IgG antibodies, followed by a colorimetric reaction. […]

For assay [4], the system named is anti-GM1a IgM antibodies of neuropathy patient sera. Kind of assay: Competitive binding ELISA (GanglioCombi/anti-GM1), GM1a-coated wells, patient sera IgM. Further details: species or system human. On the procedure: as §2, §3
Assay [5] relates to anti-GM1a IgG antibodies of neuropathy patient sera. Kind of assay: Competitive binding ELISA (GanglioCombi/anti-GM1), GM1a-coated wells, patient sera IgG. Also on record: species or system human. On the procedure: as §2, §3
In assay [6] the test system is anti-GQ1b IgG antibodies of neuropathy patient sera. Kind of assay: Competitive binding ELISA (GanglioCombi), GQ1b-coated wells, patient sera IgG. Further details: species or system human. On the procedure:
The synthesized carbohydrate polymers 6 (GM1a epitope), 26 (GD1b epitope), and 34 (GT1a epitope) were tested in the GanglioCombi(-Light) ELISA and/or, in case of compound 6, the anti-GM1 ELISA (all kits from Bühlmann Laboratories, Schönenbuch, Switzerland). The 96 well microtiter plates coated with purified gangliosides from bovine cauda equina were washed two times with washing buffer (300 μl/well) before adding the carbohydrate polymers in eight different concentrations, 25 μl/well. The patient sera containing anti-ganglioside IgG or IgM antibodies were added in the appropriate dilutions, 25 μl/well (2× concentrated), to obtain a total of 50 μl volume per well. The plate was covered with a plate sealer and incubated for 2 h at 4-8° C. The wells were washed three times with wash buffer (300 μl/well) before either the anti-human IgM antibody-horseradish peroxidase conjugate or the anti-human IgG antibody-horseradish peroxidase conjugate was added (100 μl/well). The plate was incubated for 2 h at 4-8° C. […] Finally, a stop solution (0.25 M sulfuric acid) was added (100 μl/well) and the degree of colorimetric reaction was determined by absorption measurement at 450 nm with a microplate reader (Spectramax 190, Molecular Devices, California, USA).
As indicated, the synthesized carbohydrate polymers 6 (GM1a epitope), 26 (GD1b epitope), and 34 (GT1a epitope) were tested in the GanglioCombi(-Light) ELISA and/or, in case of compound 6, the anti-GM1 ELISA (all kits from Bühlmann Laboratories, Schönenbuch, Switzerland). […] After a washing step ganglioside-bound antibodies (IgM/IgG) were detected with horseradish peroxidase labeled anti-human IgM or anti-human IgG antibodies, followed by a colorimetric reaction. Successful competition of the compounds with gangliosides led to a decrease in measured OD450 nm, (optical density), because they block the binding sites of anti-ganglioside antibodies, preventing their binding to immobilized gangliosides. […] IgG and IgM antibody titers were determined for each serum in preliminary experiments. […]

Entries after “also recorded” stand apart in the source; their conditions may differ.

Take HNK-1 Polymer [Compound 86]: the “inhibition of binding of mouse monoclonal anti-HNK-1 IgM to the HNK-1 epitope on MAG” value in assay [1] is on record as “nanomolar concentrations”. In assay [1] (mouse anti-HNK-1 antibody, HNK-1 (IgM), final dilution 1:1000), this substance displayed an IC50 of 0.0513 ± 0.0442 µM. The “reduction of anti-HNK-1 (anti-MAG) IgM antibody levels” value in assay [2] is reported as “significantly reduced; also recorded: significant reduction”.

For the substance GD1b Polymer [Compound 26], in assay [3], the IC50 turned out to be 313 µM.

Consider GM1a Polymer [Compound 6], for which the IC50 turned out to be 375 nM in assay [4] (serum P3, GM1a (IgM), dilution 1:50); 0.0594 nM in assay [4] (serum P4, GM1a (IgM), dilution 1:400); 0.219 µM in assay [5] (serum P21, GM1a (IgG), dilution 1:1'300); 28 µM in assay [5] (serum PP IgG Pos., GM1a (IgG), dilution 1:1'200).

For GT1a Polymer [Polymer 34], the “neutralization of patient sera directed against GQ1b” value in assay [6] (sera EK-GCO 1803 (IgG) and P23 (IgG)) was “neutralized”. Also, the IC50 in assay [6] (serum EK-GCO 1803, GQ1b/GT1a (IgG), dilution 1:300) turned out to be 12.5 µM; in assay [6] (serum P23, GQ1b/GT1a (IgG), dilution 1:50) it was 348 µM.
